Target: Beta-lactamase (Pseudomonas aeruginosa, UniProt Q79MP6)
Test: Competitive inhibition of Pseudomonas aeruginosa beta-lactamase IMP-1 assessed as formation of 4-nitrothiophenolate at pH 7 using CENTA as chromogenic substrate

Sequence of Beta-lactamase (Q79MP6 whole entry): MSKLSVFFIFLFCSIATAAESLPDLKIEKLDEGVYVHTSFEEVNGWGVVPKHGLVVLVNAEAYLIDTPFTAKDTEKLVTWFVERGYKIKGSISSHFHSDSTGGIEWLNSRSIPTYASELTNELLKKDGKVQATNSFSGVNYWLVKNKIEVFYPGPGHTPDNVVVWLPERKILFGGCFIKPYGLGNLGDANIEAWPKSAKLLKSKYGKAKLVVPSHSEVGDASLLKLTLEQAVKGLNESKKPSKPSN

Which Ki does the source give for `NC(=S)NNC(=O)c1ccc(Cc2ccccc2)cc1` here?
Its Ki is 18 µM.

Which Ki does the source give for `NC(=S)NNC(=O)c1ccc(C(=O)c2cccc([N+](=O)[O-])c2)cc1` here?
Its Ki is 16 µM.

For `NC(=S)NNC(=O)c1ccc(C(=O)c2ccc([N+](=O)[O-])cc2)cc1`, which Ki is on record?
Its Ki is 11 µM.

How did the Ki turn out when `NC(=S)NNC(=O)c1ccc(C(=O)c2ccccc2Cl)cc1` was run?
The Ki was 14 µM.

With `NC(S)=NNC(=O)c1ccccc1` as the molecule, how does the Ki read?
The Ki was 19 µM.

For `NC(=S)NNC(=O)c1ccc(C(=O)c2ccccc2)cc1`, which Ki is on record?
The Ki was 13 µM.

With `O=C(c1ccccc1)c1ccc(-c2nnc(S)[nH]2)cc1` as the molecule, how does the Ki read?
The Ki was 75 µM.

`Cc1ccc(C(=O)c2ccc(C(=O)NNC(N)=S)cc2)cc1` was tested. Which Ki did it give?
The Ki was 41 µM.

Source: BindingDB's records for doi:10.1016/j.bmcl.2011.10.116 (The University of Queensland, 2012)
